In paper PMC8509773, “3-Pyridinylidene Derivatives of Chemically Modified Lupane and Ursane Triterpenes as Promising Anticancer Agents by Targeting Apoptosis” (International Journal of Molecular Sciences, 2021):

How the values were obtained:
Assay in all cases: NCI-60 SRB screening (one-dose and five-dose)
Assay type in all cases: cell-based, human
OVCAR-5 = conditions: OVCAR-5, 10 μM, 48 h
Protocol: (§1) The compounds were added at a single concentration and the cell cultures were incubated for 48 h. The end point determinations were made with a protein binding dye, sulforhodamine B (SRB). […] The percentage of growth was evaluated spectrophotometrically versus controls not treated with test agents after 48-h exposure and using SRB protein assay to estimate cell viability or growth. […] Furthermore, mean graph midpoints (MG_MID) were calculated for each of the parameters, giving an average activity parameter over all cell lines for the tested compound. For the MG_MID calculation, insensitive cell lines were included with the highest concentration tested.

SK-OV-3 = conditions: SK-OV-3, 10 μM, 48 h
Protocol: as §1

NCI-H226 = conditions: NCI-H226, 10 μM, 48 h
Protocol: as §1

COLO 205 = conditions: COLO 205, 10 μM, 48 h
Protocol: as §1

MDA-MB-468 = conditions: MDA-MB-468, 10 μM, 48 h
Protocol: as §1

SF-539 = conditions: SF-539, 10 μM, 48 h
Protocol: as §1

BT-549 = conditions: BT-549, 10 μM, 48 h
Protocol: as §1

IGROV1 = conditions: IGROV1, 10 μM, 48 h
Protocol: as §1

A549/ATCC = conditions: 10 μM, 48 h
Protocol: as §1

SNB-75 = conditions: SNB-75, 10 μM, 48 h
Protocol: as §1

SW-620 = conditions: SW-620, 10 μM, 48 h
Protocol: as §1

SK-MEL-5 = conditions: SK-MEL-5, 10 μM, 48 h
Protocol: as §1

786-0 = conditions: 786-0, 10 μM, 48 h
Protocol: as §1

EKVX = conditions: 10 μM, 48 h
Protocol: as §1

T-47D = conditions: T-47D, 10 μM, 48 h
Protocol: as §1

HL-60(TB) = conditions: 10 μM, 48 h
Protocol: as §1

HCC-2998 = conditions: HCC-2998, 10 μM, 48 h
Protocol: as §1

NCI-H460 = conditions: NCI-H460, 10 μM, 48 h
Protocol: as §1

MDA-MB-435 = conditions: MDA-MB-435, 10 μM, 48 h
Protocol: as §1

K-562 = conditions: K-562, 10 μM, 48 h
Protocol: as §1

NCI/ADR-RES = conditions: 10 μM, 48 h
Protocol: as §1

NCI-H322M = conditions: 10 μM, 48 h
Protocol: as §1

HOP-92 = conditions: HOP-92, 10 μM, 48 h
Protocol: as §1

SK-MEL-2 = conditions: SK-MEL-2, 10 μM, 48 h
Protocol: as §1

MDA-MB-231/ATCC = conditions: 10 μM, 48 h
Protocol: as §1

HCT-116 = conditions: HCT-116, 10 μM, 48 h
Protocol: as §1

U251 = conditions: U251, 10 μM, 48 h
Protocol: as §1

MCF7 = conditions: MCF7, 10 μM, 48 h
Protocol: as §1

UO-31 = conditions: UO-31, 10 μM, 48 h
Protocol: as §1

RXF 393 = conditions: RXF 393, 10 μM, 48 h
Protocol: as §1

RPMI-8226 = conditions: RPMI-8226, 10 μM, 48 h
Protocol: as §1

HOP-62 = conditions: HOP-62, 10 μM, 48 h
Protocol: as §1

SF-295 = conditions: SF-295, 10 μM, 48 h
Protocol: as §1

SF-268 = conditions: SF-268, 10 μM, 48 h
Protocol: as §1

NCI-H522 = conditions: NCI-H522, 10 μM, 48 h
Protocol: as §1

UACC-257 = conditions: UACC-257, 10 μM, 48 h
Protocol: as §1

HCT-15 = conditions: HCT-15, 10 μM, 48 h
Protocol: as §1

A498 = conditions: A498, 10 μM, 48 h
Protocol: as §1

LOX IMVI = conditions: 10 μM, 48 h
Protocol: as §1

Structure (SMILES)	Growth Percent (OVCAR-5) [%]	Growth Percent (SK-OV-3) [%]	Growth Percent (NCI-H226) [%]	Growth Percent (COLO 205) [%]	Growth Percent (MDA-MB-468) [%]	Growth Percent (SF-539) [%]	Growth Percent (IGROV1) [%]	Growth Percent (A549/ATCC) [%]	Growth Percent (SNB-75) [%]	Growth Percent (SW-620) [%]	Growth Percent (SK-MEL-5) [%]	Growth Percent (786-0) [%]	Growth Percent (EKVX) [%]	Growth Percent (T-47D) [%]	Growth Percent (HCC-2998) [%]	Growth Percent (NCI-H460) [%]	Growth Percent (MDA-MB-435) [%]	Growth Percent (NCI/ADR-RES) [%]	Growth Percent (NCI-H322M) [%]	Growth Percent (HOP-92) [%]	also measured
COC(=O)[C@]12CC[C@@H](C(C)=O)[C@@H]1[C@H]1CC[C@@H]3[C@@]4(C)C/C(=C\c5cccnc5)C(=O)C(C)(C)[C@@H]4CC[C@@]3(C)[C@]1(C)CC2 [Compound 8, Methyl 3,20-dioxo-2-(3-pyridinylidene)-29-nor-lup-28-oate]	114.28	93.73	48.05	82.53	55.75	81.03	85.80	51.40	110.35	25.33	39.76	84.87	85.77	24.42	75.76	70.90	72.63	52.54	93.90	66.73	Growth Percent (BT-549): 46.03%; Growth Percent (HL-60(TB)): −2.67%; Growth Percent (K-562): 18.29%; Growth Percent (SK-MEL-2): 68.06%; Growth Percent (MDA-MB-231/ATCC): 76.56%; Growth Percent (HCT-116): 3.92%; Growth Percent (U251): 56.61%; Growth Percent (MCF7): 19.18%; Growth Percent (UO-31): 56.64%; Growth Percent (RXF 393): 30.89%; Growth Percent (RPMI-8226): 2.88%; Growth Percent (HOP-62): 102.96%; Growth Percent (SF-295): 75.30%; Growth Percent (SF-268): 68.63%; Growth Percent (NCI-H522): 47.50%; Growth Percent (UACC-257): 58.14%; Growth Percent (HCT-15): 23.22%; Growth Percent (A498): 80.56%
C[C@H]1[C@@H]2[C@H]3CC[C@@H]4[C@@]5(C)CC[C@H](O)C(C)(C)[C@@H]5CC[C@@]4(C)[C@]3(C)CC[C@]23CO[C@@]1(C)[C@@H](C(=O)/C=C/c1ccco1)C3 [Compound 5, 3β-Hydroxy-21-[3-(2E-furyl)-prop-2-en-1-one]-20β,28-epoxy-18α,19βH-ursane]	102.21	102.58	99.66	−2.30	19.35	99.66	107.89	103.89	78.39	97.06	8.55	103.94	104.96	84.80	104.00	109.09	17.83	95.25	88.29	65.36	Growth Percent (BT-549): 104.50%; Growth Percent (LOX IMVI): 89.02%; Growth Percent (SK-MEL-2): 9.51%; Growth Percent (MDA-MB-231/ATCC): 82.90%; Growth Percent (HCT-116): 100.13%; Growth Percent (U251): 69.38%; Growth Percent (MCF7): 101.23%; Growth Percent (UO-31): 77.02%; Growth Percent (RXF 393): 109.55%; Growth Percent (RPMI-8226): 105.93%; Growth Percent (HOP-62): 104.25%; Growth Percent (SF-295): 109.70%; Growth Percent (SF-268): 96.31%; Growth Percent (NCI-H522): 87.83%; Growth Percent (UACC-257): −8.91%; Growth Percent (HCT-15): 105.61%; Growth Percent (A498): 96.19%
CC(=O)[C@H]1C[C@]23CC[C@]4(C)[C@H](CC[C@@H]5[C@@]6(C)CCC(=O)C(C)(C)[C@@H]6CC[C@]54C)[C@H]2[C@H](C)[C@@]1(C)OC3 [Compound 2, 3-oxo-21β-acetyl-20β,28-epoxy-18α,19βH-ursane]	96.55	118.18	95.16	111.81	108.53	95.15	88.93	93.03	72.80	95.81	100.12	89.64	71.73	106.29	109.84	94.87	100.67	102.89	106.71	95.88	Growth Percent (LOX IMVI): 94.48%; Growth Percent (HL-60(TB)): 133.26%; Growth Percent (K-562): 103.93%; Growth Percent (SK-MEL-2): 105.22%; Growth Percent (MDA-MB-231/ATCC): 85.22%; Growth Percent (HCT-116): 100.51%; Growth Percent (U251): 107.36%; Growth Percent (MCF7): 90.80%; Growth Percent (UO-31): 66.99%; Growth Percent (RXF 393): 76.40%; Growth Percent (RPMI-8226): 102.14%; Growth Percent (HOP-62): 80.72%; Growth Percent (SF-295): 99.35%; Growth Percent (SF-268): 90.95%; Growth Percent (UACC-257): 103.91%; Growth Percent (HCT-15): 111.38%; Growth Percent (A498): 67.96%
CC(=O)O[C@H]1CC[C@]2(C)[C@H]3CC[C@@H]4[C@H]5[C@H](C)[C@@]6(C)OC[C@]5(CC[C@@]4(C)[C@]3(C)CC[C@H]2C1(C)C)CC6C(C)=O (stereo partly drawn) [Compound 1]	97.46	98.97	91.65	71.47	57.26	82.82	51.77	88.63	106.15	68.02	47.27	97.17	91.35	74.66	92.22	84.90	83.22	96.25	95.70	70.21	Growth Percent (BT-549): 96.17%; Growth Percent (LOX IMVI): 58.17%; Growth Percent (HL-60(TB)): 39.32%; Growth Percent (K-562): 39.40%; Growth Percent (SK-MEL-2): 92.21%; Growth Percent (MDA-MB-231/ATCC): 88.35%; Growth Percent (HCT-116): 41.92%; Growth Percent (U251): 77.27%; Growth Percent (MCF7): 56.74%; Growth Percent (UO-31): 95.19%; Growth Percent (RXF 393): 89.49%; Growth Percent (RPMI-8226): 47.53%; Growth Percent (HOP-62): 100.79%; Growth Percent (SF-295): 96.73%; Growth Percent (SF-268): 97.23%; Growth Percent (NCI-H522): 75.59%; Growth Percent (UACC-257): 84.73%; Growth Percent (HCT-15): 38.30%
